Test results: article PMC2819980 (Chemistry & biology, 2010)

Columns and labels:
Assay type in all cases: biochemical
FrbH = FrbH (Streptomyces rubellomurinus, UniProt Q0ZQ41); assay: HPLC / LC-MS product analysis; settings: 10 mM MgCl2, HEPES pH 7.25, 30 °C
FrbI [1] = target: T1, FrbI (Streptomyces rubellomurinus, UniProt Q0ZQ40); assay: in vitro hydrolysis
FrbI [2] = target: T1, FrbI; assay: HPLC / LC-MS product analysis, coupled with FrbH, FrbF and FrbG; settings: 10 mM MgCl2, HEPES pH 7.25, 30 °C; substrate formed in situ

T1 sequence (Q0ZQ40 whole entry): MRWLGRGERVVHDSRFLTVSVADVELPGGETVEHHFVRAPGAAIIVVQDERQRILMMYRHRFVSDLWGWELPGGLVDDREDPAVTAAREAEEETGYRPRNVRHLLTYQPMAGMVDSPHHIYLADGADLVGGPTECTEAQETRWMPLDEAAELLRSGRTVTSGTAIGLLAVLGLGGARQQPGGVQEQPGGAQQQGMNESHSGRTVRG
Chain of FrbH (Q0ZQ41 whole entry): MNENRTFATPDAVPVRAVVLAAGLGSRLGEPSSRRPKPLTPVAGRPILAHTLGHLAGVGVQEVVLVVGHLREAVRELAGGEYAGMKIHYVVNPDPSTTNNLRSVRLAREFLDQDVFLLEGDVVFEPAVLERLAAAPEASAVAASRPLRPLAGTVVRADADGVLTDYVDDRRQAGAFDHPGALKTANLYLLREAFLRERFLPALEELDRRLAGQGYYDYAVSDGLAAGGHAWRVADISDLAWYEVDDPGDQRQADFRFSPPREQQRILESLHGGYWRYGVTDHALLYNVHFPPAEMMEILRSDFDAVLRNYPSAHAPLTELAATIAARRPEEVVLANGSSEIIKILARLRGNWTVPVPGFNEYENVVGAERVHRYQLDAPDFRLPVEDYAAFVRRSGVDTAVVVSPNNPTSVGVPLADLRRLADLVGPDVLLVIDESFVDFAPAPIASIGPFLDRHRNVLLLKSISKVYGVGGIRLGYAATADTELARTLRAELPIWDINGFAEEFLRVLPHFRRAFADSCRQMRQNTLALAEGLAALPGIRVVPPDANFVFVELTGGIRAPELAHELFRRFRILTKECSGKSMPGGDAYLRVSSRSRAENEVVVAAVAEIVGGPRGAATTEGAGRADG

## NC(CCP(=O)(O)O)C(=O)O (racemic) [VI, 2APn]
FrbH; 1 mM CTP
  HPLC / LC-MS product analysis: FrbH condenses 2APn and CTP to form CMP-5'-2APn

## Nc1ccn([C@@H]2O[C@H](COP(=O)(O)OP(=O)(O)OP(=O)(O)O)[C@@H](O)[C@H]2O)c(=O)n1 [CTP]
FrbI [1]
  in vitro hydrolysis: even showed a small amount of activity toward CTP
FrbH; 2 mM (±)-2APn
  HPLC / LC-MS product analysis: FrbH condenses 2APn and CTP to form CMP-5'-2APn

## CC(=O)N(O)CCCP(=O)(O)OP(=O)(O)OC[C@H]1O[C@@H](n2ccc(N)nc2=O)[C@H](O)[C@@H]1O [IX, CMP-5'-FR-900098]
FrbI [2]
  HPLC / LC-MS product analysis, coupled with FrbH, FrbF and FrbG: FrbI catalyzes the hydrolysis of CMP-5'-FR-900098 to form FR-900098 and CMP
